# Assay results: paper PMC12631831, “Painting Peptides With Antimicrobial Potency Through Deep Reinforcement Learning” (Advanced Science, 2025)
# Ends that are not written are not given here.
# System: B.subtilis ATCC6633
# Assay: not given
# Details: ATCC6633, 18 h
# Description: (§1) Four standard bacteria used for the MIC test were Escherichia coli ATCC25922, Pseudomonas aeruginosa ATCC9027, Staphylococcus aureus ATCC6538, and Bacillus subtilis ATCC6633. The testing procedures followed the Hancock methods.^[ [67] ^] The peptides were diluted in sterilized PBS to 512 µM as storage solutions. Then twofold gradient dilution was performed to make different concentrations (128, 64, 32, 16, 8, 4, 2, 1, 0.5, 0.25, and 0.125 µM) of AMPs. Each bacteria was incubated in LB broth at 37 °C until its absorbance at 625 nm reached 0.08–0.10, then diluted 10,000 times and added into a sterile 96‐well polypropylene plate (Grenier, #655201). A co‐incubation system included 100 µL peptide solution and 100 µL bacterial suspension.
Sequence,MIC B.subtilis ATCC6633 [µM],MIC B.subtilis [µM]
RGWFKVKRRYIKRFMRGLRGFHIKAA [R04],1,–
KLKIKFKFHLKLFGLF [S09],> 128,–
"AFHHIFRGIVHVGKTIHRLVTG [Piscidin 1 [F1A], reference compound]",–,4
FFHHIFRKIHHVFKKIHRLFHH [A09],4,–
RKRVVWGKIFFRRR [S04],64,–
WWWHLRIWLKKKHQKAQWKKFGWFMKQHH [R05],8,–
RGWFKVKMRYIKRFMRGLRGFHIKAA [2-6],2,–
YKGFWRKIIYLIMMHAMKFMVWFLHLPKQ [R08],> 128,–
IFHHIFRGIHHIFKGIHRLWKR [A02],4,–
KKQVKWLLKVWKKVGIKLGAKLPVWK [S01],2,–
RGWTMVKARYIKRFMRGLRGFHIKAA [2-2],2,–
GIKKWIKGAIKKLIKKVAKWIWKQ [A07],0.5,–
YWRRWYIWRWRRWRWLRYI [R03],128,–
GILFLKRLRILGIGKLLLLKR [S05],64,–
KLYKYKYRKVYKKQRRR [R09],> 128,–
GIKKWIKGWAKKLIKKVAKKIAKQ [A05],0.25,–
LWRWKLLGRISVIIGKIKAALRLWF [R06],> 128,–
WVQKKVIKLILKGLFALKLLG [S03],> 128,–
RLKIHLYIKHYRRPKIVIRLKIK [R01],> 128,–
IKRRIRRRPIRRRQRR [S06],> 128,–
"FFHHIFRAIVHVGKTIHRLVTG [Piscidin 1 [G8A], reference compound]",–,4
WIPKRFGIVIKRFYYRPFYPLFQ [R07],> 128,–
QPKKPYKPIYKKVRGVLIPFKRV [R10],> 128,–
DGWTMVKARYIKRFMRGLRGFHIKAA [2-1],8,–
KWFFKWFRKHFLKWMRQYFHK [R02],4,–
GRKKRRRRRRGGWWWKLGLRWF [A08],64,–

# Same assay, conditions: initial sequences of A01-A10, same conditions as A01-A10
row,Sequence,MIC B.subtilis [µM]
1,"GIKDWIKGAAKTLIKTVASHIANQ [Ascaphin-5, reference compound]",16

# System: E.coli ATCC25922
# Assay: not given
# Details: ATCC25922, 18 h
# Description: as §1
Sequence,MIC E.coli [µM],MIC E.coli ATCC25922 [µM]
"GIKDWIKGAAKTLIKTVASHIANQ [Ascaphin-5, reference compound]",16,–
RGWFKVKRRYIKRFMRGLRGFHIKAA [R04],–,2
KLKIKFKFHLKLFGLF [S09],–,> 128
"AFHHIFRGIVHVGKTIHRLVTG [Piscidin 1 [F1A], reference compound]",16,–
FFHHIFRKIHHVFKKIHRLFHH [A09],–,64
RKRVVWGKIFFRRR [S04],–,64
WWWHLRIWLKKKHQKAQWKKFGWFMKQHH [R05],–,> 128
RGWFKVKMRYIKRFMRGLRGFHIKAA [2-6],–,4
YKGFWRKIIYLIMMHAMKFMVWFLHLPKQ [R08],–,> 128
IFHHIFRGIHHIFKGIHRLWKR [A02],–,64
KKQVKWLLKVWKKVGIKLGAKLPVWK [S01],–,16
RGWTMVKARYIKRFMRGLRGFHIKAA [2-2],–,4
GIKKWIKGAIKKLIKKVAKWIWKQ [A07],–,8
YWRRWYIWRWRRWRWLRYI [R03],–,> 128
GILFLKRLRILGIGKLLLLKR [S05],–,> 128
KLYKYKYRKVYKKQRRR [R09],–,> 128
GIKKWIKGWAKKLIKKVAKKIAKQ [A05],–,0.5
LWRWKLLGRISVIIGKIKAALRLWF [R06],–,> 128
WVQKKVIKLILKGLFALKLLG [S03],–,> 128
RLKIHLYIKHYRRPKIVIRLKIK [R01],–,> 128
IKRRIRRRPIRRRQRR [S06],–,> 128
"FFHHIFRAIVHVGKTIHRLVTG [Piscidin 1 [G8A], reference compound]",16,–
WIPKRFGIVIKRFYYRPFYPLFQ [R07],–,> 128
QPKKPYKPIYKKVRGVLIPFKRV [R10],–,> 128
DGWTMVKARYIKRFMRGLRGFHIKAA [2-1],–,8
KWFFKWFRKHFLKWMRQYFHK [R02],–,128
GRKKRRRRRRGGWWWKLGLRWF [A08],–,> 128

# System: P.aeruginosa ATCC9027
# Assay: not given
# Details: ATCC9027, 18 h
# Description: as §1
Sequence,MIC P.aeruginosa [µM],MIC P.aeruginosa ATCC9027 [µM]
"GIKDWIKGAAKTLIKTVASHIANQ [Ascaphin-5, reference compound]",128,–
RGWFKVKRRYIKRFMRGLRGFHIKAA [R04],–,8
KLKIKFKFHLKLFGLF [S09],–,> 128
"AFHHIFRGIVHVGKTIHRLVTG [Piscidin 1 [F1A], reference compound]",> 128,–
FFHHIFRKIHHVFKKIHRLFHH [A09],–,> 128
WWWHLRIWLKKKHQKAQWKKFGWFMKQHH [R05],–,128
RGWFKVKMRYIKRFMRGLRGFHIKAA [2-6],–,16
YKGFWRKIIYLIMMHAMKFMVWFLHLPKQ [R08],–,> 128
IFHHIFRGIHHIFKGIHRLWKR [A02],–,> 128
KKQVKWLLKVWKKVGIKLGAKLPVWK [S01],–,64
RGWTMVKARYIKRFMRGLRGFHIKAA [2-2],–,128
GIKKWIKGAIKKLIKKVAKWIWKQ [A07],–,16
YWRRWYIWRWRRWRWLRYI [R03],–,> 128
GILFLKRLRILGIGKLLLLKR [S05],–,> 128
KLYKYKYRKVYKKQRRR [R09],–,> 128
GIKKWIKGWAKKLIKKVAKKIAKQ [A05],–,4
LWRWKLLGRISVIIGKIKAALRLWF [R06],–,> 128
WVQKKVIKLILKGLFALKLLG [S03],–,> 128
RLKIHLYIKHYRRPKIVIRLKIK [R01],–,> 128
IKRRIRRRPIRRRQRR [S06],–,> 128
"FFHHIFRAIVHVGKTIHRLVTG [Piscidin 1 [G8A], reference compound]",> 128,–
WIPKRFGIVIKRFYYRPFYPLFQ [R07],–,> 128
QPKKPYKPIYKKVRGVLIPFKRV [R10],–,> 128
DGWTMVKARYIKRFMRGLRGFHIKAA [2-1],–,> 128
KWFFKWFRKHFLKWMRQYFHK [R02],–,64
GRKKRRRRRRGGWWWKLGLRWF [A08],–,> 128

# System: S.aureus ATCC6538
# Assay: not given
# Details: ATCC6538, 18 h
# Description: as §1
Sequence,MIC S.aureus [µM],MIC S.aureus ATCC6538 [µM]
"GIKDWIKGAAKTLIKTVASHIANQ [Ascaphin-5, reference compound]",4,–
RGWFKVKRRYIKRFMRGLRGFHIKAA [R04],–,0.5
KLKIKFKFHLKLFGLF [S09],–,128
"AFHHIFRGIVHVGKTIHRLVTG [Piscidin 1 [F1A], reference compound]",4,–
FFHHIFRKIHHVFKKIHRLFHH [A09],–,8
WWWHLRIWLKKKHQKAQWKKFGWFMKQHH [R05],–,2
RGWFKVKMRYIKRFMRGLRGFHIKAA [2-6],–,1
YKGFWRKIIYLIMMHAMKFMVWFLHLPKQ [R08],–,> 128
IFHHIFRGIHHIFKGIHRLWKR [A02],–,4
KKQVKWLLKVWKKVGIKLGAKLPVWK [S01],–,2
RGWTMVKARYIKRFMRGLRGFHIKAA [2-2],–,2
GIKKWIKGAIKKLIKKVAKWIWKQ [A07],–,2
YWRRWYIWRWRRWRWLRYI [R03],–,128
GILFLKRLRILGIGKLLLLKR [S05],–,128
KLYKYKYRKVYKKQRRR [R09],–,64
GIKKWIKGWAKKLIKKVAKKIAKQ [A05],–,1
LWRWKLLGRISVIIGKIKAALRLWF [R06],–,> 128
WVQKKVIKLILKGLFALKLLG [S03],–,128
RLKIHLYIKHYRRPKIVIRLKIK [R01],–,128
IKRRIRRRPIRRRQRR [S06],–,128
"FFHHIFRAIVHVGKTIHRLVTG [Piscidin 1 [G8A], reference compound]",4,–
WIPKRFGIVIKRFYYRPFYPLFQ [R07],–,128
QPKKPYKPIYKKVRGVLIPFKRV [R10],–,> 128
DGWTMVKARYIKRFMRGLRGFHIKAA [2-1],–,16
KWFFKWFRKHFLKWMRQYFHK [R02],–,8
GRKKRRRRRRGGWWWKLGLRWF [A08],–,64

# System: rat erythrocytes
# Assay: Hemolysis assay
# Details: rat RBC 10% in PBS, 37 °C, 1 min, 1-128 µM, absorbance 450 nm, triplicate, fitted with GraphPad Prism 8
# Description: In vitro hemolysis and cytotoxicity were measured by WuXi AppTec Co., ltd. The rat blood was collected and mixed in PBS, then centrifuged at 500 g for 5 mins to make the red blood cell solution (RBC, 10%). Two‐fold gradient dilution was performed to obtain different concentrations (128, 64, 32, 16, 8, 4, 2, and 1 µM) of AMP solutions. Then AMP solutions were added into 100 µL RBC to make the test solution and incubated at 37 °C for 1 min. The assay solution was centrifuged at 2500 g for 6 mins. After centrifugation, the 75 µL supernatant was placed into a 96‐well plate. PBS was used as the vehicle control and 0.1% Triton X‐100 was the positive control. The absorbance of the supernatant in each well was detected at 450 nm using EnVison (PerkinElmer) and the percentage of hemolysis was calculated as Equation (15). The HC25 value was fitted using GraphPad Prism 8. All tests were performed in triplicate. (15) Hemolysis%=AbsAMP−AbsPBS/AbsTritonX−100−AbsPBS×100
row,Sequence,HC25 (concentration that causes 25% hemolysis) [µM]
1,KWWKRRRWRWRWKKLWK [A04],> 128
2,WKKWRWWWRWKKLWW [A10],30.13
3,VKKRLLFRKPLLKLFLLFGRRLKA [S07],> 128
4,RRLRRLRILLFLKRVLRR [S02],> 128
5,WRWKGRWRRKLKKLRWKLKKKLKLG [A03],> 128
6,KQQRKRGRVRKALLGKVIGFGGLKLKG [S08],> 128
7,RWWRGWWRRKLKKLRKKLKKKLKGM [A01],14.66
8,RWRKWRRWWWRKKKLGF [A06],> 128
9,WVQKKVIKLILKGLFALKLLG [S03],> 128

# System: HEK293T cells
# Assay: Cytotoxicity assay (CellTiter-Glo)
# Type: cell-based, human
# Details: 72 h, 1-128 µM, triplicate
# Description: HEK293T cells were cultured in DMEM supplemented with 10% FBS and incubated at 37 °C with 5% CO2. After planting the cells into a 96‐well plate and incubated overnight, AMP solutions were added. The gradient dilution of AMPs followed the same setting as mentioned in the hemolysis assay. Staurosporine (STS) was used as a positive control and PBS as vehicle control. STS was diluted to 60, 12, 2.4, 0.48, 0.1, 0.02, 0.0038, and 0.0008 µM. After incubation for 72 h, the CellTiter‐Glo®Luminescent assay was performed to evaluate the cell viability. After equilibration to room temperature, the 96‐well plate containing treated cells was loaded with 100 µL CellTiter Glo (CTG, Promega) reagent each well. The plate was incubated for 30 mins, then detected by the EnVision system at a […]. Data were fitted and analyzed with GraphPad Prism 8. All tests were performed in triplicate.
row,Sequence,CC50 (concentration that reduces viability by 50%) [µM]
1,RGWFKVKRRYIKRFMRGLRGFHIKAA [R04],23.59
2,KWWKRRRWRWRWKKLWK [A04],49.63
3,WKKWRWWWRWKKLWW [A10],51.11
4,VKKRLLFRKPLLKLFLLFGRRLKA [S07],22.12
5,RRLRRLRILLFLKRVLRR [S02],> 128
6,WRWKGRWRRKLKKLRWKLKKKLKLG [A03],21.67
7,KQQRKRGRVRKALLGKVIGFGGLKLKG [S08],> 128
8,RWWRGWWRRKLKKLRKKLKKKLKGM [A01],11.62
9,RWRKWRRWWWRKKKLGF [A06],71.09
10,WVQKKVIKLILKGLFALKLLG [S03],> 64

# System: rabbit erythrocytes
# Assay: not given
# Details: ref DBAASP; cited from earlier work
row,Sequence,Concentration for 20% hemolysis [µM]
1,SMWSGMWRRKLKKLRNALKKKLKGE [Latarcin-1],80

# System: human erythrocytes
# Assay: not given
# Details: ref DBAASP; cited from earlier work
Sequence,Concentration for 100% hemolysis [µM],HC50 [µM]
"AFHHIFRGIVHVGKTIHRLVTG [Piscidin 1 [F1A], reference compound]",100,–
"FFHHIFRAIVHVGKTIHRLVTG [Piscidin 1 [G8A], reference compound]",–,4

# Same assay, conditions: ref DRAMP; cited from earlier work
row,Sequence,HC50 [µM]
1,"GIKDWIKGAAKTLIKTVASHIANQ [Ascaphin-5, reference compound]",> 200

# System: tumor cells
# Assay: not given
# Details: ref DRACP; cited from earlier work
row,Sequence,Hemolysis and cytotoxicity
1,GRKKRRQRRRGGWMWVTNLRTD [TAT-Ras-GAP317-326],Enhances genotoxin-induced cytotoxicity in tumor cells
